Converted amounts (≈) assume the structure as drawn.
Experiments:
Staphylococcus aureus [1] = assay: microbe, parasite or virus in culture
Description: Antibacterial activity against methicillin-resistant Staphylococcus aureus by broth microdilution technique

Staphylococcus aureus [2] = assay: Antibacterial activity against methicillin-sensitive Staphylococcus aureus by broth microdilution technique; assay type: functional
Staphylococcus aureus [3] = assay: Antibacterial activity against ciprofloxacin and methicillin-resistant Staphylococcus aureus
[4] = Cmax in human serum at 400 mg, po administered as single dose after 1 hr; assay type: ADME, organism-based; design: dose 400 mg, route oral
[5] = Cmax in human serum at 400 mg, po administered as single dose; assay type: ADME, organism-based; settings: read-out: tCmax
[6] = Cmax in Staphylococcus aureus infected rabbit arthritis model at 45 mg/kg, po; assay type: ADME, organism-based, Oryctolagus cuniculus; design: dose 45 mg/kg, route oral; settings: in vivo
[7] = AUC (0 to 24 hrs) in Staphylococcus aureus infected rabbit arthritis model at 45 mg/kg, po; assay type: ADME, organism-based, Oryctolagus cuniculus; design: time < 24 hr, dose 45 mg/kg, route oral; settings: in vivo
[8] = AUC (0 to 24 hrs) in human serum at 400 mg, po administered as single dose; assay type: ADME, organism-based; design: time < 24 hr, dose 400 mg, route oral
Staphylococcus aureus [9] = assay: Antibacterial activity against methicillin-sensitive Staphylococcus aureus infected rabbit arthritis model assessed as change in bacterial load per gram of synovial fluid at 50 mg/kg, im administered thrice a day after 7 days by broth microdilution technique; assay type: functional; settings: route intramuscular
[10] = Drug level in serum of Staphylococcus aureus infected rabbit arthritis model at 50 mg/kg, im administered thrice a day; assay type: ADME, organism-based, Oryctolagus cuniculus; design: dose 50 mg/kg, route intramuscular; settings: in vivo
[11] = Drug level in serum of Staphylococcus aureus infected rabbit arthritis model at 100 mg/kg, iv administered daily; assay type: ADME, organism-based, Oryctolagus cuniculus; design: dose 100 mg/kg, route intravenous; settings: in vivo

SMILES	MIC (Staphylococcus aureus [1]) [µg/mL]	MIC (Staphylococcus aureus [2]) [µg/mL]	MIC (Staphylococcus aureus [3]) [µg/mL]	Cmax [4] [ng/mL]	Tmax [5] [h]	Cmax [6] [ng/mL]	AUC(0-t) at 24 h [7] [ng·h/mL]	AUC(0-t) at 24 h [8] [ng·h/mL]	deltalog10CFU (Staphylococcus aureus [9])	Drug uptake [10] [mg/L]	Drug uptake [11] [mg/L]
COc1c(N2C[C@@H]3CCCN[C@@H]3C2)c(F)cc2c(=O)c(C(=O)O)cn(C3CC3)c12 [MOXIFLOXACIN]	1 (≈ 2.49 µM)	0.032 (≈ 0.0797 µM)	0.25 (≈ 0.623 µM)	2500	1	2850	37500	35000			
Cc1onc(-c2ccccc2Cl)c1C(=O)N[C@@H]1C(=O)N2[C@@H]1SC(C)(C)[C@@H]2C(=O)O [CLOXACILLIN]	4 (≈ 9.18 µM)	0.5 (≈ 1.15 µM)							4.6	0.8	
CN[C@H](CC(C)C)C(=O)N[C@H]1C(=O)N[C@@H](CC(N)=O)C(=O)N[C@H]2C(=O)N[C@H]3C(=O)N[C@H](C(=O)N[C@H](C(=O)O)c4cc(O)cc(O)c4-c4cc3ccc4O)[C@H](O)c3ccc(c(Cl)c3)Oc3cc2cc(c3O[C@@H]2O[C@H](CO)[C@@H](O)[C@H](O)[C@H]2O[C@H]2C[C@](C)(N)[C@H](O)[C@H](C)O2)Oc2ccc(cc2Cl)[C@H]1O [VANCOMYCIN]		0.032 (≈ 0.0221 µM)									26.3

Source: ChEMBL document CHEMBL1143423, “In vivo efficacy of moxifloxacin compared with cloxacillin and vancomycin in a Staphylococcus aureus rabbit arthritis experimental model” (Antimicrob Agents Chemother, 2007)
